Laboratory results published in patent US20230413860A1, “Abscisic Acid-Mixed Pig Feed” (Sumitomo Chemical Company, Limited, priority 2020, published 2023).

Key:
Type in all cases: in vivo, pig
[1] = Effect of abscisic acid on reducing productivity decrease due to cold stress in young pigs; conditions: for Feed Conversion Rate (Feed Intake/Body Weight Gain, Average value) / Feed Intake (Average value) / Body Weight Gain (Average value): low temperature (20.4° C.), young pigs; for Body Weight Gain (Average value): age 35 to 70 days
Procedure: Eighty four (84) crossbred young pigs (LWD) at an age of 28 days were employed in this test. Body weight of the each young pigs was measured and seven animals were assigned to one section considering the average body weight across the sections was equal, and the three sections (replicates) were assigned to a total four test groups. The test period was from 28 to 70 day-old, and S-abscisic acid was (hereinafter, referred to as “S-ABA”) used as a test substance. The S-ABA was added to the feed at the concentrations shown in Table 1, and the feed containing S-ABA was fed daily to the pigs at the age of 28 to 70 days. The low temperature environment was carried out from the age of 36 to 70 days of the pigs.
The following four groups were set.
(§1) The pigs were raised at the optimal temperature from the age of 28 to 35 day-old. After the age of 36 days, the pigs of the Test group 1 were housed at an optimal temperature and the pigs of the Test groups 2 to 4 were exposed to a particular low temperature by air conditioner. The raising temperature were measured with a thermo-hygrometer or a data logger which was installed near the center of the raising room, and then recorded. The average room temperature of the optimal temperature group was 26.1° C., and the average room temperature of the low temperature group was 20.4° C.
(§2) As a feed, an early feed, middle feed or late feed of MAMACOLO which was manufactured by FEED ONE CO., LTD. (2-6, Higashifukasiba Kamisu-shi, Ibaraki) was given by ad libitum feeding. A drinking water was freely ingested by a waterer with a picker. The early feed was given until the age of 35 days of the pig, the middle feed was given at the age of from 36 days to 42 days, and the late feed was given at the age of post 43 days.
• (i) Clinical symptoms: observed daily. • (ii) Body weight: Body weight was measured for each individual at the age of 28, 35 and 70 days old, and the average weight gain per a section from the age of 35 to 70 days during the test period was calculated. • (iii) Feed intake: Feed intake was measured daily for each section, and feed intake for one animal per a week was calculated. Also, feed conversion rate (feed intake/body weight gain) was calculated from “Average feed intake” and “Average body weight gain per section” during the test period.

[2] = Effect of abscisic acid on reducing productivity decrease due to heat stress in young pigs; conditions: for Feed Conversion Rate (Feed Intake/Body Weight Gain, Average value) / Feed Intake (Average value) / Body Weight Gain (Average value): high temperature (30.6° C.), young pigs; for Body Weight Gain (Average value): age 35 to 70 days
Procedure: Eighty four (84) of crossbred young pigs (LWD) at an age of 28 days were employed in this test. Body weight of the each young pigs was measured and seven animals were assigned to one section considering the average body weight across the sections was equal, and the three sections (replicates) were assigned to a total four test groups. The test period was from 28 to 70 day-old, and S-abscisic acid was used as a test substance. The S-ABA was added to the feed at the concentrations shown in the Table 6, and the feed containing S-ABA was fed daily to the pigs at the age of 28 to 70 days. The high temperature environment was carried out from the age of 36 to 70 days of the pigs.
The following four groups were set. Three sections (repetitions) per one group was set, which were assigned to each test group as indicated in the below Table.
as §1, with “36 days” for “36 days,”, “particular high” for “particular low”, “was 30.6°” for “was 20.4°”
as §2, with “a feed, similarly to the test example 1, an early” for “a feed, an early”
• (i) Clinical symptoms: observed daily. • (ii) Body weight: Body weight was measured for each individual at the age of 28, 35 and 70 days old, and the average weight gain per a section from the age of 35 to 70 days during the test period was calculated. • (iii) Feed intake: Feed intake was measured daily by each section, and feed intake for one animal per a week was calculated. Also, feed conversion rate (feed intake/body weight gain) was calculated from “Average feed intake” and “Average body weight gain per section” during the test period.

reduced glutathione = experiment: Effect of abscisic acid on increasing production of reduced glutathione in small intestine of gilts
Text: Twelve (12) of gilts at an age of 8 months were employed in this test. The S-ABA (particle size of 0.1 to 1 mm) in the amounts as shown in Table 11 was supplemented in the feed for about 40 days from the day of artificial insemination.
• (i) Clinical symptoms: observed daily. • (ii) Sampling of intestinal tracts: The pig was dissected on the 40th day of pregnancy, and the small intestine was sampled.
The measurement results of reduced glutathione in a small intestine after the administration for about 40 days are shown in Table 12. Using a commercially available glutathione measuring kit (manufactured by DOJINDO CHEMICALS Inc.; […]), the reduced glutathione contained in 1 g of small intestine tissue was determined quantitatively.

In the case of `CC1=CC(=O)CC(C)(C)[C@@]1(O)/C=C/C(C)=C\C(=O)O` [ABA, (S)-(+)-abscisic acid], the Clinical symptoms ([1]; 0.1, 0.5 or 1 ppm in feed, age 28 to 70 days, observed daily, low temperature) is reported as “No abnormality was seen”, the “Feed Conversion Rate (Feed Intake/Body Weight Gain, Average value)” value ([1]; 0.1 ppm ABA in feed) is reported as 4.40 and the “Feed Intake (Average value)” value ([1]; 0.1 ppm ABA in feed) is reported as 29.81 kg. For the same compound, the “Body Weight Gain (Average value)” value ([1]; 0.1 ppm ABA in feed) was 16.99 kg, the “Feed Conversion Rate (Feed Intake/Body Weight Gain, Average value)” value ([1]; 0.5 ppm ABA in feed) was 4.29 and the “Feed Intake (Average value)” value ([1]; 0.5 ppm ABA in feed) was 29.91 kg. For the same compound, the “Body Weight Gain (Average value)” value ([1]; 0.5 ppm ABA in feed) was 16.40 kg, the “Feed Conversion Rate (Feed Intake/Body Weight Gain, Average value)” value ([1]; 1.0 ppm ABA in feed) was 4.41 and the “Feed Intake (Average value)” value ([1]; 1.0 ppm ABA in feed) was 30.30 kg. For the same compound, the “Body Weight Gain (Average value)” value ([1]; 1.0 ppm ABA in feed) was 17.00 kg, the Clinical symptoms ([2]; 0.1, 0.5 or 1 ppm in feed, age 28 to 70 days, observed daily, high temperature) was “No abnormality was seen” and the “Feed Conversion Rate (Feed Intake/Body Weight Gain, Average value)” value ([2]; 0.1 ppm ABA in feed) was 4.54. The “Feed Intake (Average value)” value ([2]; 0.1 ppm ABA in feed) was 30.7 kg, the “Body Weight Gain (Average value)” value ([2]; 0.1 ppm ABA in feed) was 18.04 kg and the “Feed Conversion Rate (Feed Intake/Body Weight Gain, Average value)” value ([2]; 0.5 ppm ABA in feed) was 4.25. For the same compound, the “Feed Intake (Average value)” value ([2]; 0.5 ppm ABA in feed) was 29.7 kg, the “Body Weight Gain (Average value)” value ([2]; 0.5 ppm ABA in feed) was 18.25 kg and the “Feed Conversion Rate (Feed Intake/Body Weight Gain, Average value)” value ([2]; 1.0 ppm ABA in feed) was 3.91. The “Feed Intake (Average value)” value ([2]; 1.0 ppm ABA in feed) was 32.9 kg, the “Body Weight Gain (Average value)” value ([2]; 1.0 ppm ABA in feed) was 19.02 kg and the “Reduced glutathione in small intestine tissue compared to the no dosing S-ABA group” value (reduced glutathione; 10 ppm S-ABA in feed for about 40 days) was “increased amount of reduced glutathione in small intestine tissue significantly”. The “Reduced glutathione Amount” value (reduced glutathione; 10 ppm S-ABA in feed for about 40 days from artificial insemination, small intestine tissue) was 0.234 μmol/g wet tissue and the Clinical symptoms (reduced glutathione; 10 ppm S-ABA in feed for about 40 days, observed daily) was “No abnormality was seen”.
